In PubChem BioAssay AID720587 (Broad Institute, 2013) one finds AC35 data, which are given here for 76 compounds.

The subject of this test is A673 Ewing sarcoma viability, CellTiter-Glo ATP luminescence, 72 h. Description: EWS/Fli1-dependent A673 cell killing, confirmation, CellTiter-Glo luminescence, cherry-pick retest (AID 720587).
Take `Cc1ccc(S(=O)(=O)Nc2ccc3c(c2)C(=O)N([C@H](C)CO)C[C@@H](C)[C@@H](CN(C)Cc2ccc(C(=O)Nc4ccccc4N)cc2)O3)cc1`: the AC35 was 11.9 µM.

In the case of `C=C1C(=O)OC2C1CCC(C)C1(O)C=CC(=O)C21C` (stereo unspecified), the AC35 was 6.43 µM.

In the case of `C[C@H]1CN([C@@H](C)CO)C(=O)c2cc(N(C)C)ccc2O[C@@H]1CN(C)Cc1ccc(C(=O)Nc2ccccc2N)cc1`, the AC35 is 14.1 µM. As to `COC1C(O)C(C)OC(OC2CCC3(C)C(CCC4C3C(O)CC3(C)C(C5=CC(=O)OC5)CCC43O)C2)C1O` (stereo unspecified), the AC35 is 0.228 µM.

For `CC(C)c1ccc(OCc2cccc(C(=O)N/N=C/c3cccnc3)c2)cc1`, the AC35 was 19.4 µM. Under `CN(C)c1ncnc2c1ccn2C1OC(CO)C(O)C1O` (stereo unspecified) stands 2.94 µM; under `CN=c1scc(-c2ccccc2F)n1/N=C/c1ccc[nH]1`, 10.1 µM. `COc1ccccc1-c1ccc(OCCCN2CCC(C(O)(c3ccccc3)c3ccccc3)CC2)cc1`: the AC35 is 9.43 µM.

`Cc1cc2c(C(C)C)c(O)c(O)c(C=O)c2c(O)c1-c1c(C)cc2c(C(C)C)c(O)c(O)c(C=O)c2c1O`: the AC35 is 6.09 µM.

Turning to `O=C(CCCN1C(=O)/C(=C/c2ccccc2Cl)SC1=S)NNC(=O)c1ccc(Cl)cc1`, the AC35 was 23.9 µM.

Regarding `O=C1/C(=C\c2ccccc2)CN(C(=O)CCN2CCCCC2)C/C1=C/c1ccccc1`, the AC35 is 0.734 µM. Take `CC(=O)OC1CC(OC2C(O)CC(OC3C(O)CC(OC4CCC5(C)C(CCC6C5CCC5(C)C(C7=CC(=O)OC7)C(O)CC65O)C4)OC3C)OC2C)OC(C)C1OC1OC(CO)C(O)C(O)C1O` (stereo unspecified): the AC35 was 1.26 µM. In the case of `Nc1ccn([C@@H]2O[C@H](CO)[C@@H](O)C2O)c(=O)n1` (stereo partly specified), the AC35 was 0.448 µM. Turning to `C[C@@H]1CCCCO[C@H](CN(C)Cc2ccc(C(=O)Nc3ccccc3N)cc2)[C@@H](C)CN([C@H](C)CO)C(=O)c2cc(NS(=O)(=O)c3ccc(Cl)cc3)ccc2O1`, the AC35 is 14.3 µM.

`CCCC[C@@H]1Cc2[nH][nH]c(=O)c2[C@H](c2ccc3ccccc3c2)O1`: the AC35 is 7.67 µM. Take `Brc1ccc(CSc2nnc(-c3ccco3)o2)cc1`: the AC35 was 6.49 µM. Consider `C[C@@H]1CN([C@H](C)CO)C(=O)c2cc(N(C)C)ccc2O[C@H]1CN(C)Cc1ccc(C(=O)Nc2ccccc2N)cc1`, for which the AC35 is 16.7 µM.

In the case of `O=C(O)c1ccc(N/N=C/c2ccc3nccnc3c2)cc1`, the AC35 was 15 µM.

As for `O=C(NC1CCCC1)N1CCCCN2[C@@H](CO)[C@@H](c3ccc(/C=C/c4ccccc4)cc3)[C@@H]2C1`, the AC35 was 7.8 µM. Consider `Cc1cc(C)cc(N2C(=O)NC(=O)/C(=C\C=C\c3ccco3)C2=O)c1`, for which the AC35 was 3.84 µM. Under `C[C@@H]1CN([C@@H](C)CO)C(=O)Cc2cc(N(C)C)ccc2O[C@H]1CN(C)Cc1ccc(C(=O)Nc2ccccc2N)cc1` stands 8.7 µM; under `C[C@H]1CN([C@@H](C)CO)C(=O)c2cccc(NC(=O)c3ccc(-c4nccs4)cc3)c2O[C@@H]1CN(C)Cc1ccc(C(=O)Nc2ccccc2N)cc1`, 18.1 µM; under `COc1cc(/C=C/C(=O)CC(=O)/C=C/c2ccc(O)c(OC)c2)ccc1O`, 2.54 µM. Turning to `O=C(Nc1ccc2c(c1)OCO2)N1C[C@@H]2N[C@H](C1)C2c1ccc(C=Cc2ccccc2)cc1` (stereo partly specified), the AC35 was 4.6 µM. Then `Cc1ccc(S(=O)(=O)N(C)C[C@@H]2Oc3cc(C#Cc4ccncc4)ccc3S(=O)(=O)N([C@@H](C)CO)C[C@H]2C)cc1`, with 21.1 µM; and `O=c1[nH]c(/C=C2\C=Nc3ccccc32)c(O)n1Cc1ccccc1F`, with 3.16 µM; and `C[C@@H]1CN([C@H](C)CO)C(=O)c2cc(NC(=O)c3ccccc3)ccc2O[C@@H](C)CCCCO[C@H]1CN(C)C(=O)Nc1cccc2ccccc12`, with 2.17 µM. Turning to `CCOc1ccc(N=Nc2ccc(O)c3ncccc23)cc1`, the AC35 was 0.5 µM. `Cc1cccc(CN2C(=O)/C(=C\c3ccc(C(=O)NCCCN4CCN(C)CC4)cc3)Oc3ccccc32)c1`: the AC35 was 12.3 µM.

`CN1C(=O)c2cc(NC(=O)c3ccc(Cl)cc3)ccc2OC[C@@H]2O[C@@H](CC(=O)NCc3cccc(F)c3)CC[C@H]21`: the AC35 was 5.42 µM. For the compound `Cc1ccc(S(=O)(=O)Nc2ccc3c(c2)C(=O)N([C@@H](C)CO)C[C@@H](C)[C@@H](CN(C)Cc2ccc(C(=O)Nc4ccccc4N)cc2)O3)cc1`, the AC35 was 9.91 µM. As to `N/C(=C\C(=O)c1cc(Cl)ccc1O)C(Cl)(Cl)Cl`, the AC35 was 4 µM.

In the case of `Cc1cc(C)c2sc(NNC(=O)c3ccc(S(=O)(=O)N4CCc5ccccc5C4)cc3)nc2c1`, the AC35 is 1.19 µM.

Take `C[C@H](CO)N1C[C@H](C)[C@@H](CN(C)Cc2ccc(C(F)(F)F)cc2)OCCCC[C@H](C)Oc2ccc(NS(=O)(=O)c3ccc(F)cc3)cc2C1=O`: the AC35 is 13.4 µM. With `Cc1ccc(S(=O)(=O)Nc2ccc3c(c2)C(=O)N([C@H](C)CO)C[C@H](C)[C@@H](CN(C)Cc2ccc(C(F)(F)F)cc2)OCCCC[C@H](C)O3)cc1`, the AC35 was 12.8 µM.

On to `COc1cc2c(cc1OC)C(C)N(C(=O)c1cc(Cl)nc(Cl)c1)CC2` (stereo unspecified), for which the AC35 is 12.1 µM. Take `CN1C/C(=C/c2ccsc2)C(=O)/C(=C/c2ccsc2)C1`: the AC35 was 8.67 µM. As to `COc1ccc(-c2cnc3c(NC=O)cc(-c4ccccc4OC)cn23)cc1OC`, the AC35 is 0.101 µM. Under `CN1C(=O)c2cc(NC(=O)c3ccc(C(F)(F)F)cc3)ccc2OC[C@@H]2O[C@@H](CC(=O)NC3Cc4ccccc4C3)CC[C@H]21` stands 4.43 µM; under `C[C@@H]1CN([C@@H](C)CO)C(=O)Cc2cc(N(C)C)ccc2O[C@@H]1CN(C)Cc1ccccc1`, 14.4 µM. `COc1ccc(-c2cc(CNc3nc(NC(C)C)nc4cc(-c5ccccc5)sc34)on2)cc1`: the AC35 is 10 µM. On to `COc1ccccc1NC(=O)N1CCCCN2[C@H](CO)[C@H](c3ccc(-c4cccc(C)c4)cc3)[C@H]2C1`, for which the AC35 was 9.29 µM. As for `COC(=O)C[C@@H]1CC[C@H]2[C@H](COc3ccc(NC(=O)Nc4ccc(C#N)cc4)cc3C(=O)N2C)O1`, the AC35 is 11.3 µM. For the compound `COC(=O)CC1(C(=O)OC)Oc2ccc(Br)cc2C(=O)N1c1cccc(Cl)c1Cl` (stereo unspecified), the AC35 was 14.2 µM. Regarding `COC(=O)C[C@H]1C=C[C@@H](NC(=O)Nc2ccc(C(F)(F)F)cc2)[C@H](CO)O1`, the AC35 is 21.6 µM. Turning to `CC(C)CC#Cc1ccc([C@@H]2[C@@H](CO)N3CCCCN(S(=O)(=O)c4ccc(F)cc4)C[C@H]23)cc1`, the AC35 was 8.8 µM. Consider `COc1cccc(O)c1CN1CCC(C(=O)Nc2ccc(-c3cccc(C)c3)cc2)CC1`, for which the AC35 was 11 µM. `CCOc1ccc(OCc2ccc(C(=O)NN=Cc3ccc[nH]3)cc2)cc1`: the AC35 is 0.667 µM.

For the compound `CC(=O)ON=C1C=CC(=C(C#N)c2ccccc2)C=C1`, the AC35 was 5.49 µM. For the compound `CCCN1C/C(=C/c2ccc3c(c2)OCO3)C(=O)/C(=C/c2ccc3c(c2)OCO3)C1`, the AC35 is 3.77 µM.

Take `CC(=O)OC1CC(OC2C(O)CC(OC3C(O)CC(OC4CCC5(C)C(CCC6C5CC(O)C5(C)C(C7=CC(=O)OC7)CCC65O)C4)OC3C)OC2C)OC(C)C1OC1OC(CO)C(O)C(O)C1O` (stereo unspecified): the AC35 was 0.244 µM.

For `CCN1/C(=C/C(C)=C/c2sc3ccccc3[n+]2CC)Sc2ccccc21`, the AC35 was 1.36 µM. With `CCc1ccc(S(=O)(=O)c2ccc(-n3nc(C)cc3N)cc2)cc1`, the AC35 was 17.8 µM. On to `COC(=O)C(CC#Cc1ccc2c(c1)[C@]1(C(=O)N2)[C@H](c2ccc(OCCO)cc2)N2[C@H](c3ccccc3)[C@H](c3ccccc3)OC(=O)[C@H]2[C@@H]1C(=O)N1CCN(c2ncccn2)CC1)C(=O)OC`, for which the AC35 was 7.81 µM. Then `N#CC(C#N)=C1C=CC=CN1/C(=C\c1ccco1)C(=O)c1ccc(Cl)cc1`, with 3.04 µM; and `C[C@]12CC[C@H]3[C@@H](CC[C@]4(O)C[C@@H](O)CC[C@]34C=O)[C@@]1(O)CC[C@@H]2C1=CC(=O)OC1`, with 0.641 µM; and `COc1ccc(-c2nc3c(s2)CCc2onc(-c4ccc(OC)cc4)c2-3)cc1`, with 8 µM. For `CCOc1ccc2nc(NC3=NC(c4ccc(OC)cc4)CC(=O)N3)nc(C)c2c1` (stereo unspecified), the AC35 was 12.1 µM. Under `Cc1nc(N)nc(N)c1-c1ccc(Cl)c(Cl)c1` stands 0.928 µM; under `CC(C)N1C/C(=C/c2cccnc2)C(=O)/C(=C/c2cccnc2)C1`, 10.5 µM; under `COC(=O)C1=C(C)N(Cc2ccccc2C(F)(F)F)C(=NCc2ccc(OC)cc2)NC1c1ccc(C(F)(F)F)cc1` (stereo unspecified), 13.1 µM. As to `COc1ccc(/C=C/C(=O)c2cc(F)ccc2OC(=O)c2ccccc2OC)cc1OC`, the AC35 was 4.54 µM. Consider `Cc1ccc2c(c1)C(=O)N1[C@H]3c4cc(Br)ccc4OC[C@@H]3[C@H](c3ccccc3)[C@]1(C)C(=O)N2`, for which the AC35 is 14.5 µM.

Consider `NC1=CC(=O)C(=O)c2cccnc21`, for which the AC35 was 11.1 µM.

As to `CC(C)(C)C(=O)Cn1ncc(Cl)c(Cl)c1=O`, the AC35 was 2.73 µM. Take `COc1ccc(/C=C/C(=O)c2ccc(C(=O)/C=C/c3ccc(OC)c(OC)c3)cc2)cc1OC`: the AC35 was 5.02 µM. Consider `COc1ccc(S(=O)(=O)Nc2ccc3c(c2)C(=O)N([C@H](C)CO)C[C@@H](C)[C@@H](CN(C)Cc2ccc(C(=O)Nc4ccccc4N)cc2)O3)cc1`, for which the AC35 is 12.5 µM.

In the case of `COc1cccc(CN2CCC2(C)C(=O)Nc2cccc3cccnc23)c1F` (stereo unspecified), the AC35 is 14.3 µM.

In the case of `C[C@H](CO)N1C[C@H](C)[C@H](CN(C)Cc2ccc(C(=O)Nc3ccccc3N)cc2)Oc2ccc(NS(=O)(=O)c3cccs3)cc2C1=O`, the AC35 was 14.5 µM. Consider `CO[C@H]1CN(C)C(=O)c2cc(NC(=O)c3ccc(Oc4ccccc4)cc3)ccc2OC[C@H](C)NC[C@@H]1C`, for which the AC35 was 12.3 µM. Under `COc1ccc(/C=C(/C(=O)c2cccs2)N2C=CC=CC2=C(C#N)C#N)cc1` stands 3.97 µM. Consider `O=c1[nH]c(=O)n([C@H]2C[C@H](O)[C@@H](CO)O2)cc1F`, for which the AC35 was 0.0545 µM.

Consider `C[C@@H]1CN([C@H](C)CO)C(=O)c2cc(NC(=O)Nc3ccccc3)ccc2O[C@@H]1CN(C)Cc1ccc(C(=O)Nc2ccccc2N)cc1`, for which the AC35 was 9.7 µM. As to `COc1ccc(CCCNC(=O)C2Cc3c(-c4ccc5c(c4)OCO5)ccnc3O2)cc1` (stereo unspecified), the AC35 was 15.8 µM. Regarding `C[C@H](CO)N1C[C@H](C)[C@H](CN(C)Cc2ccc(C(=O)Nc3ccccc3N)cc2)Oc2ccc(N(C)C)cc2C1=O`, the AC35 is 9.49 µM.

As for `COc1cc(/C=C/C(=O)/C=C(O)/C=C/c2ccc(O)c(OC)c2)ccc1O`, the AC35 is 2.13 µM.
